*1 amine or outer side, *2 acyl side, *3 side chain or, on linkers, in order; H or OH if unused. Where a SMILES comes first, the peptide text is derived from it. Side-chain parts run from the residue outwards. [ ]: non-standard residue; d: D form. The star is where a group is joined. PEG12 = NCCOCCOCCOCCOCCOCCOCCOCCOCCOCCOCCOCCOCCC(=O)O; Trp(5-OH) = N[C@@H](Cc1c[nH]c2ccc(O)cc12)C(=O)O; γGlu = O=C(O)[C@H](CCC(=O)[*:2])N[*:1]; Pentadecanoyl = CCCCCCCCCCCCCCC(=O)*; Stearoyl = CCCCCCCCCCCCCCCCCC(=O)*; Palmitoyl = CCCCCCCCCCCCCCCC(=O)*; αMeF = C[C@](N)(Cc1ccccc1)C(=O)O; αMeK = C[C@](N)(CCCCN)C(=O)O; αMeS = C[C@](N)(CO)C(=O)O; Nle = CCCC[C@H](N)C(=O)O; AEEA = NCCOCCOCC(=O)O; Aib = CC(C)(N)C(=O)O
Molecular target: T1, RXFP1 (Homo sapiens, UniProt Q9HBX9)
T1 construct: OVCAR5 cells expressing endogenous RXFP1; endogenous in cells; host or cells: OVCAR5 cells
T1 sequence (Q9HBX9 1-757): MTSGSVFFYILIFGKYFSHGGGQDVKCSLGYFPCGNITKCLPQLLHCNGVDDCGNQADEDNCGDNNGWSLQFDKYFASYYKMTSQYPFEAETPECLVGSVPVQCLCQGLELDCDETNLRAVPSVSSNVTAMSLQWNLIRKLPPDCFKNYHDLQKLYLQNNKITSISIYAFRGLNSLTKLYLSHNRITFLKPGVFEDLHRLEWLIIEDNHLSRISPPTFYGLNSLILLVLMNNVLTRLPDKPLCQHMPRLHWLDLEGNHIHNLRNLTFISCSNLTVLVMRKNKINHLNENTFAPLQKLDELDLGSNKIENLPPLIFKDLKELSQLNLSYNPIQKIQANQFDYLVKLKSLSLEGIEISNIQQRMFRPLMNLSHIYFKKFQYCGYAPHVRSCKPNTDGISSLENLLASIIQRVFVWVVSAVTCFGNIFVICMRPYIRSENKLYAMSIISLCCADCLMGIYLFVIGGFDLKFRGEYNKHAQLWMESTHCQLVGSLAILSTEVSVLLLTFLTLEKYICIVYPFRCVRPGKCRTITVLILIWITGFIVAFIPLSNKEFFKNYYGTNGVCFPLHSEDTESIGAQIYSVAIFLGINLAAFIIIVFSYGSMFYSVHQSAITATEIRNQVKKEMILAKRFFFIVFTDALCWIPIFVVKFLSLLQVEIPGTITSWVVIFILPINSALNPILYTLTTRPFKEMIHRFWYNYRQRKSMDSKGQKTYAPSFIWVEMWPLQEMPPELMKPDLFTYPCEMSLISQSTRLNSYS
Assay: OVCAR5 cAMP assay (HTRF), RXFP1 agonist activity
Type: cell-based
Conditions: for Emax: OVCAR-5, maximal cAMP relative to H2-relaxin maximum (100%), read-out: EMax, OVCAR 5 cells (cAMP); for EC50: OVCAR5 cells, cAMP HTRF, read-out: EC50 (nM), OVCAR 5 cells (cAMP)
From the text: OVCAR5 cells expressing endogenous RXFP1 were used to test RXP1 agonist properties of peptides of the invention, and in particular of the peptides of sequence SEQ ID NO: 1-193.
Since RXFP1 is a Gs coupled GPCR, cAMP was used as readout of RXFP1 activation.
Isobutyl Methyl Xanthine (IBMX) was used to inhibit phosphodiesterase activity facilitating cAMP measurements. HTRF (Homogenous Time Resolved Fluorescence) technology was used to detect cAMP due to its great sensitivity.
In summary, OVCAR5 were grown in regular medium (RPMI) containing 10% fetal calf serum (FCS) and 1% antibiotics (penicillin/streptomycin).
Before the experiments, cells were detached with accutase and incubated for 40 minutes at 37° C. with 1 mM (3-isobutyl-1-methylxanthine) IBMX.
Cells were then distributed in 384 black well plates containing increasing concentrations of the different peptides in a fix volume of medium (without FCS).
After an incubation of 30 min at 37° C. in an humid incubator in 5% CO2, the reaction was stopped by adding a fixed volume of a solution containing a lysis buffer and cAMP-D2 (cAMP labeled with the dye d2) and the anti cAMP antibody linked to Europium and used for cAMP detection.
Readout of the experiment were performed on a fluorimeter allowing HTRF measurement. Activation curves were generated by plotting the intracellular value of cAMP versus log 10 of the compound concentration.
The 50% activation concentration (EC50) was calculated by nonlinear regression using the sigmoidal dose-response (variable slope) equation with Prism 5 software.
Emax % is determined as the maximal intracellular value of cAMP for test compound (upper limit of cAMP vs concentration curve) divided by the maximal intracellular value of cAMP for H2-relaxin determined in the same test occasion multiplied by 100. Emax %=100×[cAMPtest cpd]/[cAMPH2-RlX]

| Emax [%] | EC50 [nM] | Structure (SMILES) |
| --- | --- | --- |
| 84 | – | CCCCCCCCCCCCCCCCCC(=O)N[C@@H](CCC(=O)N[C@@H](CCC(=O)N[C@@H](CCC(=O)N[C@@H](CCC(=O)NCCOCCOCC(=O)NCCOCCOCC(=O)NCCOCCOCC(=O)NCCOCCOCC(=O)NCCCC[C@H](NC(=O)[C@H](CCCCNC(C)=O)NC(=O)[C@H](CCCCN)NC(=O)[C@H](CCCNC(=N)N)NC(=O)C(C)(C)NC(=O)[C@H](CO)NC(=O)[C@H](Cc1c[nH]c2ccccc12)NC(=O)[C@@H](NC(=O)[C@H](CO)NC(=O)[C@H](CCC(N)=O)NC(=O)CNC(=O)[C@H](CCC(=O)O)NC(=O)C(C)(C)NC(=O)C(C)(C)NC(=O)[C@@H](NC(=O)[C@H](CCCCNC(C)=O)NC(=O)[C@H](C)NC(=O)[C@H](CCCNC(=N)N)NC(=O)[C@@H](NC(=O)[C@H](CCCCN)NC(=O)[C@H](CCC(=O)O)NC(=O)[C@H](CCCNC(=N)N)NC(=O)CNC(=O)[C@H](CCC(=O)O)NC(=O)[C@H](CC(C)C)NC(C)=O)C(C)C)[C@@H](C)CC)[C@@H](C)O)C(N)=O)C(=O)O)C(=O)O)C(=O)O)C(=O)O [compound 180] (Ac-LEGREKVRAK(Ac)I[Aib][Aib]EGQSTWS[Aib]RKK(Ac)K([AEEA-AEEA-AEEA-AEEA-γGlu-γGlu-γGlu-γGlu-Stearoyl])-NH2) |
| 100 | 0.18 | CCCCCCCCCCCCCCC(=O)N[C@@H](CCC(=O)N[C@@H](CCC(=O)NCCCC[C@H](NC(=O)CC[C@H](NC(=O)CC[C@H](NC(=O)COCCOCCNC(=O)COCCOCCNC(=O)COCCOCCNC(=O)COCCOCCNC(=O)[C@H](CCCCNC(C)=O)NC(=O)[C@H](C)NC(=O)[C@H](CCCNC(=N)N)NC(=O)[C@](C)(CCCCN)NC(=O)[C@H](CO)NC(=O)[C@H](Cc1ccccc1)NC(=O)[C@@H](NC(=O)[C@H](CO)NC(=O)[C@H](CCC(N)=O)NC(=O)CNC(=O)[C@H](CCC(=O)O)NC(=O)C(C)(C)NC(=O)C(C)(C)NC(=O)[C@@H](NC(=O)[C@H](CCCCNC(C)=O)NC(=O)[C@H](C)NC(=O)[C@H](CCCNC(=N)N)NC(=O)[C@@H](NC(=O)[C@H](CCCCN)NC(=O)[C@H](CCC(=O)O)NC(=O)[C@H](CCCNC(=N)N)NC(=O)CNC(=O)[C@H](CCC(=O)O)NC(=O)[C@H](CC(C)C)NC(C)=O)C(C)C)[C@@H](C)CC)[C@@H](C)O)C(=O)O)C(=O)O)C(N)=O)C(=O)O)C(=O)O [compound 186] (Ac-LEGREKVRAK(Ac)I[Aib][Aib]EGQSTFS[αMeK]RAK(Ac)[AEEA][AEEA][AEEA][AEEA][γGlu][γGlu]K([γGlu-γGlu-Pentadecanoyl])-NH2) |
| 90 | 0.14 | CCCCCCCCCCCCCCCCCC(=O)N[C@@H](CCC(=O)N[C@@H](CCC(=O)N[C@@H](CCC(=O)NCCOCCOCC(=O)NCCOCCOCC(=O)NCCOCCOCC(=O)NCCCC[C@H](NC(=O)[C@H](CCCCNC(C)=O)NC(=O)[C@H](CCCCN)NC(=O)[C@H](CCCNC(=N)N)NC(=O)C(C)(C)NC(=O)[C@H](CO)NC(=O)[C@H](Cc1c[nH]c2ccc(O)cc12)NC(=O)[C@@H](NC(=O)[C@H](CO)NC(=O)[C@H](CCCC)NC(=O)CNC(=O)[C@H](CCC(=O)O)NC(=O)C(C)(C)NC(=O)C(C)(C)NC(=O)[C@@H](NC(=O)[C@H](CCCCNC(C)=O)NC(=O)[C@H](C)NC(=O)[C@H](CCCNC(=N)N)NC(=O)[C@@H](NC(=O)[C@H](CCCCN)NC(=O)[C@H](CCC(=O)O)NC(=O)[C@H](CCCNC(=N)N)NC(=O)CNC(=O)[C@H](CCC(=O)O)NC(=O)[C@H](CC(C)C)NC(C)=O)C(C)C)[C@@H](C)CC)[C@@H](C)O)C(N)=O)C(=O)O)C(=O)O)C(=O)O [compound 158] (Ac-LEGREKVRAK(Ac)I[Aib][Aib]EG[Nle]ST[Trp(5-OH)]S[Aib]RKK(Ac)K([AEEA-AEEA-AEEA-γGlu-γGlu-γGlu-Stearoyl])-NH2) |

Second part, the compound before the results:

| Structure (SMILES) | Emax [%] | EC50 [nM] |
| --- | --- | --- |
| CCCCCCCCCCCCCCCC(=O)N[C@@H](CCC(=O)N[C@@H](CCC(=O)NCCCC[C@H](NC(=O)[C@H](CCCCN)NC(=O)[C@H](CCCNC(=N)N)NC(=O)C(C)(C)NC(=O)[C@H](CO)NC(=O)[C@H](Cc1c[nH]c2ccccc12)NC(=O)[C@@H](NC(=O)[C@H](CO)NC(=O)[C@H](CCCC)NC(=O)CNC(=O)[C@H](CCC(=O)O)NC(=O)C(C)(C)NC(=O)C(C)(C)NC(=O)[C@@H](NC(=O)[C@H](C)NC(=O)[C@H](C)NC(=O)[C@H](CCCNC(=N)N)NC(=O)[C@@H](NC(=O)[C@H](CCCCN)NC(=O)[C@H](CCC(=O)O)NC(=O)[C@H](CCCNC(=N)N)NC(=O)CNC(=O)[C@H](CCC(=O)O)NC(=O)[C@H](CC(C)C)NC(=O)[C@H](CCC(=O)O)NC(C)=O)C(C)C)[C@@H](C)CC)[C@@H](C)O)C(N)=O)C(=O)O)C(=O)O [compound 4] (Ac-ELEGREKVRAAI[Aib][Aib]EG[Nle]STWS[Aib]RKK([γGlu-γGlu-Palmitoyl])-NH2) | 99 | – |
| CCCCCCCCCCCCCCCCCC(=O)N[C@@H](CCC(=O)N[C@@H](CCC(=O)N[C@@H](CCC(=O)NCCCC[C@H](NC(=O)CCOCCOCCOCCOCCOCCOCCOCCOCCOCCOCCOCCOCCNC(=O)[C@H](CCCCNC(C)=O)NC(=O)[C@H](CCCCN)NC(=O)[C@H](CCCNC(=N)N)NC(=O)C(C)(C)NC(=O)[C@](C)(CO)NC(=O)[C@H](Cc1c[nH]c2ccccc12)NC(=O)[C@@H](NC(=O)[C@H](CO)NC(=O)[C@H](CCCC)NC(=O)CNC(=O)[C@H](CCC(=O)O)NC(=O)C(C)(C)NC(=O)C(C)(C)NC(=O)[C@@H](NC(=O)[C@H](CCCCNC(C)=O)NC(=O)[C@H](C)NC(=O)[C@H](CCCNC(=N)N)NC(=O)[C@@H](NC(=O)[C@H](CCCCN)NC(=O)[C@H](CCC(=O)O)NC(=O)[C@H](CCCNC(=N)N)NC(=O)CNC(=O)[C@H](CCC(=O)O)NC(=O)[C@H](CC(C)C)NC(C)=O)C(C)C)[C@@H](C)CC)[C@@H](C)O)C(N)=O)C(=O)O)C(=O)O)C(=O)O [compound 41] (Ac-LEGREKVRAK(Ac)I[Aib][Aib]EG[Nle]STW[αMeS][Aib]RKK(Ac)[PEG12]K([γGlu-γGlu-γGlu-Stearoyl])-NH2) | 87 | 0.09 |
| CCCCCCCCCCCCCCCC(=O)N[C@@H](CCC(=O)NCCCC[C@H](NC(=O)CC[C@H](NC(=O)CC[C@H](NC(=O)CC[C@H](NC(=O)COCCOCCNC(=O)COCCOCCNC(=O)COCCOCCNC(=O)COCCOCCNC(=O)[C@H](CCCCNC(C)=O)NC(=O)[C@H](CCCCN)NC(=O)[C@H](CCCNC(=N)N)NC(=O)[C@](C)(CCCCN)NC(=O)[C@H](CO)NC(=O)[C@](C)(Cc1ccccc1)NC(=O)[C@@H](NC(=O)[C@H](CO)NC(=O)[C@H](CCCC)NC(=O)CNC(=O)[C@H](CCC(=O)O)NC(=O)C(C)(C)NC(=O)C(C)(C)NC(=O)[C@@H](NC(=O)[C@H](CCCCNC(C)=O)NC(=O)[C@H](C)NC(=O)[C@H](CCCNC(=N)N)NC(=O)[C@@H](NC(=O)[C@H](CCCCN)NC(=O)[C@H](CCC(=O)O)NC(=O)[C@H](CCCNC(=N)N)NC(=O)CNC(=O)[C@H](CCC(=O)O)NC(=O)[C@H](CC(C)C)NC(C)=O)C(C)C)[C@@H](C)CC)[C@@H](C)O)C(=O)O)C(=O)O)C(=O)O)C(N)=O)C(=O)O [compound 152] (Ac-LEGREKVRAK(Ac)I[Aib][Aib]EG[Nle]ST[αMeF]S[αMeK]RKK(Ac)[AEEA][AEEA][AEEA][AEEA][γGlu][γGlu][γGlu]K([γGlu-Palmitoyl])-NH2) | 91 | – |
